Data on eight compounds can be found in ChEMBL document CHEMBL1201862, “PubChem BioAssay data set” (2004).

The GI50 is the concentration at which growth is held to half of that of the control.

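Test compounds were applied to cells in 96-well plates for 48 hours at 5 doses. The concentration for 50% growth inhibition is given as GI50.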 Active and inactive are the calls of the source. Cut-off read from the data, not from the text of the source: active = GI50 up to about 1.1 µM and inactive = higher.

Test systems include BT-549; DU-145; HCT-15; HL-60; HOP-92; HT-29; Hs-578T; KM12; MDA-MB-231; NCI-H226; NCI-H23; RPMI-8226; SF-539; SK-MEL-28; SK-MEL-2; SK-MEL-5; SNB-19; SR; UACC-257.
What all share (assay): DTP human tumour cell line panel, 48 h

On to `c1ccc(/C(=N\Nc2nc3ccccc3s2)c2ccccn2)cc1`, for which the GI50 with BT-549 is 18.8 µM (inactive); with DU-145, 3.75 µM (inactive); with HCT-15, 0.622 µM; in the assay with HL-60 it was 0.792 µM (active); in the assay on HOP-92, 7.31 µM (inactive); in the assay on HT-29, 1.87 µM (inactive). Further, the GI50 is 13.2 µM (inactive) with Hs-578T; 3.56 µM (inactive) with KM12; 4.74 µM (inactive) with MDA-MB-231; 3.87 µM (inactive) in the assay on NCI-H226; 6.82 µM (inactive) in the assay with NCI-H23; 1.77 µM (inactive) in the assay with RPMI-8226. The GI50 with SF-539 is 7 µM (inactive); in the assay with SK-MEL-28 it was 8.13 µM (inactive); in the assay on SK-MEL-2, 4.08 µM (inactive); with SK-MEL-5, 2.49 µM (inactive); in the assay on SNB-19, 5.77 µM (inactive); in the assay on SR it was 0.891 µM (active). In addition, the GI50 in the assay with UACC-257 was 2.92 µM (inactive).
In the case of `CC(C)CC(NC(O)[BH2-][N+](C)(C)C)C(=O)NC(Cc1ccccc1)C(=O)N[C@H]1c2ccsc2/C(=N/O)[C@H]1O` (some centres not stated), the GI50 in the assay on BT-549 was > 100 µM (inactive); in the assay on DU-145 it was > 100 µM (inactive); with HCT-15, over 100 µM; with HL-60, > 100 µM (inactive); in the assay on HOP-92, > 100 µM (inactive); with HT-29, > 100 µM (inactive). Moreover, the GI50 with Hs-578T, in the assay on KM12, with MDA-MB-231, in the assay on NCI-H226, with NCI-H23 and with RPMI-8226 was > 100 µM (inactive) each time. Besides, the GI50 in the assay on SF-539, with SK-MEL-28, with SK-MEL-2, in the assay on SK-MEL-5, in the assay with SNB-19 and in the assay on SR was > 100 µM (inactive) in each case. Besides, the GI50 in the assay on UACC-257 is > 100 µM (inactive).
Turning to `O=C1NC(=O)C(F)(n2cc(F)c(=O)[nH]c2=O)C(O)N1` (configuration not stated), the GI50 is > 10 µM (inactive) with BT-549; > 10 µM (inactive) in the assay on DU-145; over 10 µM in the assay with HCT-15; > 10 µM (inactive) in the assay with HL-60; > 10 µM (inactive) with HOP-92; > 10 µM (inactive) with HT-29. Also, the GI50 in the assay on Hs-578T, in the assay on KM12, in the assay on MDA-MB-231, in the assay on NCI-H226, with NCI-H23 and in the assay on RPMI-8226 was > 10 µM (inactive) in each case. The GI50 with SF-539, in the assay with SK-MEL-28, in the assay with SK-MEL-2, with SK-MEL-5, in the assay on SNB-19 and in the assay with SR was > 10 µM (inactive) throughout. Also, the GI50 in the assay with UACC-257 is > 10 µM (inactive).
Regarding `CC(C)(C)OC(=O)NCCCNC1(c2cc3ccccc3s2)CCCCC1`, the GI50 in the assay on BT-549 is 13.6 µM (inactive); in the assay with DU-145, 16.9 µM (inactive); in the assay on HCT-15 it was 14.9 µM; with HL-60, 10.5 µM (inactive); in the assay with HOP-92, 10 µM (inactive); in the assay with HT-29 it was 3.15 µM (inactive). The GI50 with Hs-578T was 19.4 µM (inactive); in the assay with KM12 it was 17 µM (inactive); in the assay with MDA-MB-231, 17.6 µM (inactive); with NCI-H226, 29 µM (inactive); in the assay on NCI-H23 it was 13 µM (inactive); in the assay on RPMI-8226, 3.84 µM (inactive). For the same compound, the GI50 in the assay with SF-539 was 18.4 µM (inactive); in the assay on SK-MEL-28, 14.9 µM (inactive); in the assay with SK-MEL-2, 17.5 µM (inactive); with SK-MEL-5, 13.9 µM (inactive); in the assay on SNB-19, 13.6 µM (inactive); with SR, 10.2 µM (inactive). Besides, the GI50 in the assay on UACC-257 was 15.8 µM (inactive).
For `Nc1nc(SCC(=O)c2ccccc2)nc2nc3c(c(-c4ccccc4)c12)CCCC3`, the GI50 in the assay on BT-549 was 40.9 µM (inactive); in the assay on DU-145 it was > 100 µM (inactive); in the assay with HCT-15 it was over 100 µM; with HL-60, > 100 µM (inactive); with HOP-92 it was > 10 µM (inactive); with HT-29, 27.1 µM (inactive). Besides, the GI50 in the assay on Hs-578T is 19.1 µM (inactive); in the assay on KM12, 22.4 µM (inactive); in the assay on MDA-MB-231, 19.1 µM (inactive); in the assay on NCI-H226 it was 18.1 µM (inactive); with NCI-H23 it was 76.2 µM (inactive); with RPMI-8226, > 100 µM (inactive). Besides, the GI50 in the assay on SF-539 is > 100 µM (inactive); with SK-MEL-28 it was 21.9 µM (inactive); with SK-MEL-2, 27.9 µM (inactive); in the assay with SK-MEL-5 it was 49.1 µM (inactive); in the assay on SNB-19 it was 49.9 µM (inactive); with SR, > 100 µM (inactive). The GI50 in the assay with UACC-257 is 35 µM (inactive).
Take `C=CCN(c1cc(OCc2ccccc2)c2[nH]cc(C)c2c1)S(C)(=O)=O`: the GI50 in the assay on BT-549 was > 100 µM (inactive); in the assay on DU-145, 40 µM (inactive); in the assay with HCT-15 it was over 100 µM; in the assay on HL-60, > 100 µM (inactive); in the assay on HOP-92, 44 µM (inactive); in the assay with HT-29 it was 60.8 µM (inactive). Moreover, the GI50 in the assay with Hs-578T was 45.8 µM (inactive); with KM12, 51.4 µM (inactive); with MDA-MB-231 it was 44.6 µM (inactive); with NCI-H226, 28.7 µM (inactive); in the assay on NCI-H23, 87.1 µM (inactive); in the assay on RPMI-8226, 39.4 µM (inactive). Further, the GI50 in the assay on SF-539 was 56.2 µM (inactive); in the assay on SK-MEL-28, 48.8 µM (inactive); in the assay with SK-MEL-2, 41.7 µM (inactive); in the assay on SK-MEL-5, 52.4 µM (inactive); with SNB-19, 57.9 µM (inactive); in the assay with SR, > 100 µM (inactive). The GI50 with UACC-257 is 52.7 µM (inactive).
Regarding `CC1(C)OCC(C2OC(On3nnc4ccc(Cl)cc43)C3OC(C)(C)OC23)O1` (configuration not stated), the GI50 is > 100 µM (inactive) with BT-549; > 100 µM (inactive) in the assay on DU-145; over 100 µM with HCT-15; > 100 µM (inactive) in the assay with HL-60; > 100 µM (inactive) in the assay with HOP-92; > 100 µM (inactive) with HT-29. Further, the GI50 in the assay with Hs-578T was > 100 µM (inactive); with KM12, > 100 µM (inactive); in the assay on MDA-MB-231, > 100 µM (inactive); with NCI-H226, 66.1 µM (inactive); in the assay with NCI-H23, > 100 µM (inactive); with RPMI-8226 it was > 100 µM (inactive). In addition, the GI50 with SF-539, with SK-MEL-28, in the assay on SK-MEL-2, in the assay with SK-MEL-5, in the assay with SNB-19 and with SR was > 100 µM (inactive) in each case. Moreover, the GI50 in the assay with UACC-257 was > 100 µM (inactive).
As for `c1ccc2c(c1)ccn1ccc3c4ccccc4nc-3c21`, the GI50 with BT-549 was 1.43 µM (inactive); with DU-145 it was 0.351 µM (active); in the assay with HCT-15, 0.305 µM; in the assay with HL-60, 0.297 µM (active); with HOP-92, 1.41 µM (inactive); with HT-29 it was 0.11 µM (active). The GI50 in the assay with Hs-578T was 1.23 µM (inactive); with KM12, 0.346 µM (active); in the assay on MDA-MB-231, 0.322 µM (active); in the assay on NCI-H226, 0.31 µM (active); in the assay on NCI-H23, 0.289 µM (active); in the assay with RPMI-8226 it was 0.195 µM (active). Moreover, the GI50 with SF-539 is 0.369 µM (active); in the assay on SK-MEL-28 it was 0.368 µM (active); in the assay on SK-MEL-2 it was 1.17 µM (inactive); with SK-MEL-5, 0.454 µM (active); with SNB-19, 0.776 µM (active); with SR, < 0.01 µM (active). In addition, the GI50 in the assay with UACC-257 is 1.06 µM (active).
